# Measured values taken from ChEMBL document CHEMBL5214930, “Discovery of the First Selective IDO2 Inhibitor As Novel Immunotherapeutic Avenues for Rheumatoid Arthritis” (J Med Chem, 2022).
# Calls of active or inactive are those of the source. No cut-off for these calls is given here.
# Tests used:
# [1] = target: T1, Indoleamine 2,3-dioxygenase 2 (Homo sapiens, UniProt Q6ZQW0); experiment: Inhibition of IDO2 (unknown origin)
# T1 sequence (Q6ZQW0 whole entry): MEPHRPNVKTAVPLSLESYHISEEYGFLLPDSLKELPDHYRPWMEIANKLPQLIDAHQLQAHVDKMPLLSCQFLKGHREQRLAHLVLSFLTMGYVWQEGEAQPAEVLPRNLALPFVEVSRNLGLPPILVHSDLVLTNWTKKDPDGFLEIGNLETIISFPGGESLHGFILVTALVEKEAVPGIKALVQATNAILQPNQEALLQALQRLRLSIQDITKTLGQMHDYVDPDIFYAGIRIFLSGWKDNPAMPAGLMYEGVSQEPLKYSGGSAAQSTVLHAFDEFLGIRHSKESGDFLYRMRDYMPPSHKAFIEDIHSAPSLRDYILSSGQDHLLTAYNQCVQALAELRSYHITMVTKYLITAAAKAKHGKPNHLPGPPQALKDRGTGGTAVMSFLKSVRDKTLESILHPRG
# [2] = target: Tryptophan 2,3-dioxygenase (Homo sapiens, UniProt P48775); experiment: Inhibition of TDO (unknown origin)
# [3] = target: T2, Indoleamine 2,3-dioxygenase 1 (Homo sapiens, UniProt P14902); experiment: Inhibition of IDO1 (unknown origin)
# Target sequence in this assay (P14902 whole entry): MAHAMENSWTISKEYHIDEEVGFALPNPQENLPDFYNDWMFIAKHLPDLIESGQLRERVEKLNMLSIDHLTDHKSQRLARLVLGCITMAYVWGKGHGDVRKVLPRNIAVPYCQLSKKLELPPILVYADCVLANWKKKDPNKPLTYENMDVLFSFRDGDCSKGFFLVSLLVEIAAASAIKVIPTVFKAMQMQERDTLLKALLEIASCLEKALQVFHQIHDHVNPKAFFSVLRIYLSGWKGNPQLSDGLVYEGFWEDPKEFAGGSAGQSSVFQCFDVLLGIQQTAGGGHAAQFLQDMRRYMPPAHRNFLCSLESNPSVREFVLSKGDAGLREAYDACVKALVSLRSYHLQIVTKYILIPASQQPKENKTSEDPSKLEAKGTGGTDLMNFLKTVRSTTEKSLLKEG
# HeLa [4] = experiment: Antiproliferative activity against human HeLa cells; format: functional, cell-based
# [5] = target: T3, Indoleamine 2,3-dioxygenase 2 (Homo sapiens) (UniProt Q6ZQW0); experiment: Inhibition of recombinant human IDO2 in HeLa cells at […] relative to control; format: cell-based
# T3 sequence (whole entry): T1 sequence (Q6ZQW0 whole entry)
# [6] = target: T2, Indoleamine 2,3-dioxygenase 1; experiment: Inhibition of recombinant human IDO1 in HeLa cells at 100 nM relative to control; format: cell-based
# Target sequence in this assay (P14902 whole entry, looked up): as the sequence (P14902 whole entry) above
# [7] = target: T2, Indoleamine 2,3-dioxygenase 1; experiment: Inhibition of human IDO1
# Target sequence in this assay (P14902 whole entry): as above
# [8] = target: T3, Indoleamine 2,3-dioxygenase 2 (Homo sapiens); experiment: Inhibition of recombinant human IDO2 in HeLa cells at 100 nM relative to control; format: cell-based
# Mus musculus [9] = experiment: Antiinflammatory activity against xylene-induced ear swelling ICR mouse model assessed as swelling inhibition ratio at 100 mg/kg, IG measured after 1 hr; format: functional; parameters: scale not given: the % may be the effect or the level left
# [10] = target: T1, Indoleamine 2,3-dioxygenase 2; experiment: Inhibition of human IDO2
# Mus musculus [11] = experiment: Antiinflammatory activity against xylene-induced ear swelling ICR mouse model assessed as swelling rate at 100 mg/kg, IG measured after 1 hr (Activity = 58.21 +/- 12.79%); format: functional
# Mus musculus [12] = experiment: Antiarthritic activity against collagen-induced arthritis DBA/1J mouse model assessed as increase in cartilage at 100 mg/kg, ip administered from day 57 to 74 post CFA injection and measured every 3 days by H and E staining method; format: functional, organism-based; settings: time 17.0 day
# Mus musculus [13] = experiment: Antiarthritic activity against collagen-induced arthritis DBA/1J mouse model assessed as decrease in bone erosion at 100 mg/kg, ip administered from day 57 to 74 post CFA injection and measured every 3 days by H and E staining method; format: functional, organism-based; settings: time 17.0 day
# Mus musculus [14] = experiment: Antiarthritic activity against collagen-induced arthritis ip dosed DBA/1J mouse model assessed as paw swelling administered from day 57 to 74 post CFA injection and measured every 3 days; format: functional, organism-based; settings: dose 25-100 mg/kg, time 17.0 day, DDE = dose-dependent effect
# [15] = Oral bioavailability in Sprague-Dawley rat at 10 mg/kg; format: ADME, organism-based; settings: in vivo
# Rattus norvegicus [16] = experiment: Antiarthritic activity against adjuvant arthritis-induced po dosed Sprague-Dawley rat model assessed as decrease in bone erosion of cartilage administered from day 21 to 36 post CFA injection and measured every 3 days by H and E staining method; format: functional, organism-based; settings: dose 50-100 mg/kg, time 15.0 day, DDE = dose-dependent effect
# [17] = Metabolic stability in human liver microsome assessed as intrinsic permeability measured per mg of protein; format: ADME; settings: microsomes
# [18] = AUC(0 to infinity) in Sprague-Dawley rat at 10 mg/kg, po; format: ADME, organism-based; parameters: time infinity, dose 10 mg/kg, route po; settings: in vivo
# [19] = Half life in Sprague-Dawley rat at 10 mg/kg, po; format: ADME, organism-based; settings: in vivo
# Rattus norvegicus [20] = experiment: Antiarthritic activity against adjuvant arthritis-induced Sprague-Dawley rat model assessed as decrease in TNF-alpha level at 30 to 120 mg/kg, po administered from day 21 to 36 post CFA injection and measured every 3 days; format: functional, organism-based; settings: dose 30-120 mg/kg, time 15.0 day
# [21] = Metabolic stability in human liver microsome assessed as binding constant; format: ADME; settings: microsomes
# [22] = Metabolic stability in human liver microsome assessed as half life; format: ADME; settings: liver microsomes
# [23] = AUC(0 to infinity) in Sprague-Dawley rat at 1 mg/kg, iv; format: ADME, organism-based; parameters: time infinity, dose 1 mg/kg, route iv; settings: in vivo
# Rattus norvegicus [24] = experiment: Antiarthritic activity against adjuvant arthritis-induced Sprague-Dawley rat model assessed as decrease in index score at 30 to 120 mg/kg, po administered from day 21 to 36 post CFA injection and measured every 3 days; format: functional, organism-based; settings: dose 30-120 mg/kg, time 15.0 day
# [25] = Metabolic stability in human liver microsome assessed as intrinsic clearance; format: ADME; settings: microsomes
# Rattus norvegicus [26] = experiment: Antiarthritic activity against adjuvant arthritis-induced Sprague-Dawley rat model assessed as decrease in IL-6 level at 30 to 120 mg/kg, po administered from day 21 to 36 post CFA injection and measured every 3 days; format: functional, organism-based; settings: dose 30-120 mg/kg, time 15.0 day
# Mus musculus [27] = experiment: Antiarthritic activity against collagen-induced arthritis DBA/1J mouse model assessed as paw swelling at 100 mg/kg, ip administered from day 57 to 74 post CFA injection and measured every 3 days; format: functional, organism-based; settings: time 17.0 day
# [28] = Tmax in Sprague-Dawley rat at 10 mg/kg, po; format: ADME, organism-based; settings: in vivo
# Mus musculus [29] = experiment: Antiarthritic activity against collagen-induced arthritis DBA/1J mouse model assessed as decrease in IL-18 level at 50 to 100 mg/kg, ip administered from day 57 to 74 post CFA injection and measured every 3 days by immunohistochemical staining method; format: functional, organism-based; settings: dose 50-100 mg/kg, time 17.0 day
# Rattus norvegicus [30] = experiment: Antiarthritic activity against adjuvant arthritis-induced Sprague-Dawley rat model assessed as decrease in paw swelling at 30 to 120 mg/kg, po administered from day 21 to 36 post CFA injection and measured every 3 days; format: functional, organism-based; settings: dose 30-120 mg/kg, time 15.0 day
# [31] = MRT (0 to infinity) in Sprague-Dawley rat at 1 mg/kg, iv; format: ADME, organism-based; settings: in vivo
# Mus musculus [32] = experiment: Antiarthritic activity against collagen-induced arthritis DBA/1J mouse model assessed as decrease in inflammation at 100 mg/kg, ip administered from day 57 to 74 post CFA injection and measured every 3 days by H and E staining method; format: functional, organism-based; settings: time 17.0 day
# [33] = Apparent volume of distribution in Sprague-Dawley rat at 1 mg/kg, iv; format: ADME, organism-based; settings: in vivo, read-out: Vz
# Rattus norvegicus [34] = experiment: Antiarthritic activity against adjuvant arthritis-induced po dosed Sprague-Dawley rat model assessed as decrease in inflammatory cell infiltration administered from day 21 to 36 post CFA injection and measured every 3 days by H and E staining method; format: functional, organism-based; settings: dose 50-100 mg/kg, time 15.0 day, DDE = dose-dependent effect
# [35] = MRT (0 to infinity) in Sprague-Dawley rat at 10 mg/kg, po; format: ADME, organism-based; settings: in vivo
# Mus musculus [36] = experiment: Antiarthritic activity against collagen-induced arthritis DBA/1J mouse model assessed as decrease in IL-33 level at 50 to 100 mg/kg, ip administered from day 57 to 74 post CFA injection and measured every 3 days by immunohistochemical staining method; format: functional, organism-based; settings: dose 50-100 mg/kg, time 17.0 day
# [37] = Clearance in Sprague-Dawley rat at 1 mg/kg, iv; format: ADME, organism-based; settings: in vivo
# [38] = Half life in Sprague-Dawley rat at 1 mg/kg, iv; format: ADME, organism-based; settings: in vivo
# Rattus norvegicus [39] = experiment: Antiarthritic activity against adjuvant arthritis-induced po dosed Sprague-Dawley rat model assessed as decrease in pannus formation administered from day 21 to 36 post CFA injection and measured every 3 days by H and E staining method; format: functional, organism-based; settings: dose 50-100 mg/kg, time 15.0 day, DDE = dose-dependent effect
# [40] = Cmax in Sprague-Dawley rat at 10 mg/kg, po; format: ADME, organism-based; parameters: dose 10 mg/kg, route po; settings: in vivo
# HeLa [41] = experiment: Antiproliferative activity against human HeLa cells at 5 uM; format: functional
# Sequence of Tryptophan 2,3-dioxygenase (P48775 whole entry): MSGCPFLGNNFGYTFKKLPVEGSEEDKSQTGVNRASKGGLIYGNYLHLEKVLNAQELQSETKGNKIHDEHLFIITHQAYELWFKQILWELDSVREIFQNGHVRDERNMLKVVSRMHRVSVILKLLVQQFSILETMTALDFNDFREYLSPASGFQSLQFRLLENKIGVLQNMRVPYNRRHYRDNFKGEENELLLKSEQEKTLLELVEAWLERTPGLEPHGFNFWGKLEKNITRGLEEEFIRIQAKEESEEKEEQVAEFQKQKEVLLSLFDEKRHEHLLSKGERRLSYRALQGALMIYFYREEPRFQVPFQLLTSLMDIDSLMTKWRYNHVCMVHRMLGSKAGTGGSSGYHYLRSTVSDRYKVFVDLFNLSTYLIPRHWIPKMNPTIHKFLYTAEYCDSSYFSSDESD
compound,measurement,setting,value
CN1CCN(c2ccc3nc4n(c(=O)c3c2)-c2ccc(F)cc2C4=O)CC1,IC50,[1],18400 nM
same,IC50,[2],760 nM
same,IC50,[3],500 nM
O=C(NCc1cn(CCNc2nonc2/C(=N/O)NCc2ccc(F)cc2)nn1)c1ccc[nH]1,EC50,HeLa [4],1210 nM
same,inhibition,[5],10%
same,inhibition,[6],9%
O=C(NCc1cn(CCNc2nonc2/C(=N/O)Nc2ccc(F)c(Br)c2)nn1)c1ccc[nH]1,IC50,[7],47 nM
same,EC50,HeLa [4],73 nM
same,inhibition,[8],51%
same,Activity,Mus musculus [9],52.17%
same,inhibition,[5],86%
same,IC50,[10],134 nM
same,inhibition,[6],75%
same,Activity,Mus musculus [11],27.84%
Cc1ccc(Br)cc1N/C(=N\O)c1nonc1NCCn1cc(CNC(=O)c2ccccn2)nn1,EC50,HeLa [4],663 nM
same,inhibition,[8],15%
same,inhibition,[5],41%
same,inhibition,[6],18%
O=C(NCc1cn(CCNc2nonc2/C(=N/O)NCc2cccc(Br)c2)nn1)c1ccccn1,Activity,Mus musculus [12],Active
same,IC50,[7],411 nM
same,EC50,HeLa [4],633 nM
same,Activity,Mus musculus [13],Active
same,Activity,Mus musculus [14],Dde
same,bioavailability,[15],17.9%
same,Activity,Rattus norvegicus [16],Dde
same,Pm,[17],0.25 mL⁻¹
same,AUC(0-inf),[18],670 ng·h/mL
same,half-life,[19],121 min
same,Activity,Rattus norvegicus [20],Active
same,K,[21],0.014 min⁻¹
same,inhibition,[8],41%
same,half-life,[22],49.5 min
same,AUC(0-inf),[23],375 ng·h/mL
same,Activity,Rattus norvegicus [24],Active
same,CLH,[25],0.056 mL/min
same,Activity,Mus musculus [9],65.32%
same,Activity,Rattus norvegicus [26],Active
same,inhibition,[5],97%
same,Activity,Mus musculus [27],Active
same,Tmax,[28],45 min
same,Activity,Mus musculus [29],Active
same,IC50,[10],112 nM
same,inhibition,[6],26%
same,Activity,Rattus norvegicus [30],Active
same,MRT inf,[31],33 min
same,Activity,Mus musculus [32],Active
same,Vd,[33],2.68 L/kg
same,Activity,Rattus norvegicus [34],Dde
same,MRT inf,[35],449 min
same,Activity,Mus musculus [36],Active
same,clearance,[37],44.5 mL/min/kg
same,half-life,[38],41.4 min
same,Activity,Mus musculus [11],20.19%
same,Activity,Rattus norvegicus [39],Dde
same,Cmax,[40],154 ng/mL
O=C(NCc1cn(CCNc2nonc2/C(=N/O)Nc2ccc(F)cc2)nn1)c1ccccn1,EC50,HeLa [4],1380 nM
same,inhibition,[8],5%
same,inhibition,[5],30%
same,inhibition,[6],4%
C[C@H](N/C(=N\O)c1nonc1NCCn1cc(CNC(=O)c2ccccn2)nn1)c1cccc(Br)c1,Activity,HeLa [41],17.87%
same,inhibition,[5],15%
same,inhibition,[6],3%
